Results: patent publication US20040063662A1, “Selenophene anti-tumor agents” (priority 1996, published 2004)

What was measured:
K-562 = test: NCI human tumor cell panel: K-562 (Leukemia); format: cell-based
MOLT-4 = test: NCI human tumor cell panel: MOLT-4 (Leukemia); format: cell-based
A549/ATCC = test: NCI human tumor cell panel: A549/ATCC (Non-Small Cell Lung Cancer); format: cell-based; settings: read-out: Log10 TGI (converted)
EKVX = test: NCI human tumor cell panel: EKVX (Non-Small Cell Lung Cancer); format: cell-based
NCI-H226 = test: NCI human tumor cell panel: NCI-H226 (Non-Small Cell Lung Cancer); format: cell-based; settings: NCI-H226, read-out: Log10 GI50 (converted)
NCI-H322M = test: cells; format: cell-based; settings: Homo sapiens
COLO 205 = test: NCI human tumor cell panel: COLO 205 (Colon Cancer); format: cell-based
HCC-2998 = test: NCI human tumor cell panel: HCC-2998 (Colon Cancer); format: cell-based
HCT-116 = test: NCI human tumor cell panel: HCT-116 (Colon Cancer); format: cell-based
HCT-15 = test: NCI human tumor cell panel: HCT-15 (Colon Cancer); format: cell-based
HT29 = test: NCI human tumor cell panel: HT29 (Colon Cancer); format: cell-based
KM12 = test: NCI human tumor cell panel: KM12 (Colon Cancer); format: cell-based; settings: KM12, read-out: Log10 TGI (converted)
SNB-19 = test: NCI human tumor cell panel: SNB-19 (CNS Cancer); format: cell-based; settings: SNB-19, read-out: Log10 GI50 (converted)
U251 = test: NCI human tumor cell panel: U251 (CNS Cancer); format: cell-based
MALME-3M = test: NCI human tumor cell panel: MALME-3M (Melanoma); format: cell-based; settings: Malme-3M
SK-MEL-28 = test: NCI human tumor cell panel: SK-MEL-28 (Melanoma); format: cell-based
OVCAR-3 = test: NCI human tumor cell panel: OVCAR-3 (Ovarian Cancer); format: cell-based
SK-OV-3 = test: NCI human tumor cell panel: SK-OV-3 (Ovarian Cancer); format: cell-based
ACHN = test: NCI human tumor cell panel: ACHN (Renal Cancer); format: cell-based
CAKI-1 = test: NCI human tumor cell panel: CAKI-1 (Renal Cancer); format: cell-based
TK-10 = test: NCI human tumor cell panel: TK-10 (Renal Cancer); format: cell-based
PC-3 = test: NCI human tumor cell panel: PC-3 (Prostate Cancer); format: cell-based
MDA-MB-231/ATCC = test: NCI human tumor cell panel: MDA-MB-231/ATCC (Breast Cancer); format: cell-based; settings: Homo sapiens, MDA-MB-231, MDA-MB-231/ATCC
T-47D = test: NCI human tumor cell panel: T-47D (Breast Cancer); format: cell-based; settings: T47D
NCI-H522 = test: NCI human tumor cell panel: NCI-H522 (Non-Small Cell Lung Cancer)
[1] = system: panel of sixty different human tumor cell lines; test: NCI human tumor cell panel: whole panel (mean graph summary)
[2] = read-out: Log10 GI50 (converted)
[3] = read-out: Log10 TGI (converted)

## O=Cc1ccc(-c2ccc(-c3ccc(C=O)[se]3)s2)s1 [compound 688829]
K-562; K562, K-562, read-out: Log10 GI50 (converted)
  GI50: 0.251 µM
K-562; K562, K-562, read-out: Log10 TGI (converted)
  IC (TGI): > 100 µM
MOLT-4; MOLT-4, read-out: Log10 GI50 (converted)
  GI50: 57.5 µM
MOLT-4; MOLT-4, read-out: Log10 TGI (converted)
  IC (TGI): > 100 µM
A549/ATCC
  IC (TGI): > 100 µM
EKVX; [2]
  GI50: > 100 µM
EKVX; [3]
  IC (TGI): > 100 µM
NCI-H226
  GI50: 0.891 µM
NCI-H322M; [2]
  GI50: 27.5 µM
NCI-H322M; [3]
  IC (TGI): 89.1 µM
COLO 205; COLO 205, read-out: Log10 GI50 (converted)
  GI50: 12 µM
COLO 205; COLO 205, read-out: Log10 TGI (converted)
  IC (TGI): 33.1 µM
HCC-2998; HCC-2998, read-out: Log10 GI50 (converted)
  GI50: 0.389 µM
HCC-2998; HCC-2998, read-out: Log10 TGI (converted)
  IC (TGI): > 100 µM
HCT-116; HCT-116, read-out: Log10 GI50 (converted)
  GI50: 0.295 µM
HCT-116; HCT-116, read-out: Log10 TGI (converted)
  IC (TGI): > 100 µM
HCT-15; HCT-15, read-out: Log10 GI50 (converted)
  GI50: 22.9 µM
HCT-15; HCT-15, read-out: Log10 TGI (converted)
  IC (TGI): > 100 µM
HT29; HT-29, HT29, read-out: Log10 GI50 (converted)
  GI50: 23.4 µM
HT29; HT-29, HT29, read-out: Log10 TGI (converted)
  IC (TGI): > 100 µM
KM12
  IC (TGI): > 100 µM
SNB-19
  GI50: > 100 µM
U251; U-251, U251, read-out: Log10 GI50 (converted)
  GI50: 0.245 µM
U251; U-251, U251, read-out: Log10 TGI (converted)
  IC (TGI): 25.7 µM
MALME-3M; [2]
  GI50: 28.8 µM
MALME-3M; [3]
  IC (TGI): > 100 µM
SK-MEL-28; SK-MEL-28, read-out: Log10 GI50 (converted)
  GI50: 66.1 µM
SK-MEL-28; SK-MEL-28, read-out: Log10 TGI (converted)
  IC (TGI): > 100 µM
OVCAR-3; OVCAR-3, read-out: Log10 GI50 (converted)
  GI50: 0.129 µM
OVCAR-3; OVCAR-3, read-out: Log10 TGI (converted)
  IC (TGI): 0.631 µM
SK-OV-3; SK-OV-3, read-out: Log10 GI50 (converted)
  GI50: 26.3 µM
SK-OV-3; SK-OV-3, read-out: Log10 TGI (converted)
  IC (TGI): > 100 µM
ACHN; [2]
  GI50: > 100 µM
ACHN; [3]
  IC (TGI): > 100 µM
CAKI-1; CAKI-1, read-out: Log10 GI50 (converted)
  GI50: 0.191 µM
CAKI-1; CAKI-1, read-out: Log10 TGI (converted)
  IC (TGI): 0.501 µM
TK-10; TK-10, read-out: Log10 GI50 (converted)
  GI50: 0.0282 µM
TK-10; TK-10, read-out: Log10 TGI (converted)
  IC (TGI): 0.209 µM
PC-3; PC-3, read-out: Log10 GI50 (converted)
  GI50: 28.2 µM
PC-3; PC-3, read-out: Log10 TGI (converted)
  IC (TGI): > 100 µM
MDA-MB-231/ATCC; [2]
  GI50: 23.4 µM
MDA-MB-231/ATCC; [3]
  IC (TGI): 67.6 µM
T-47D; [2]
  GI50: 0.339 µM
T-47D; [3]
  IC (TGI): > 100 µM
NCI-H522; NCI-H522, read-out: Log10 GI50 (converted)
  GI50: 11.2 µM
NCI-H522; NCI-H522, read-out: Log10 TGI
  IC (TGI): 39.8 µM
[1]; Homo sapiens, read-out: Log10 GI50, MG_MID, mean over the panel (converted)
  GI50: 5.37 µM
[1]; Homo sapiens, read-out: Log10 LC50, MG_MID, mean over the panel (converted)
  CC50: 87.1 µM
[1]; mean over the panel
  Log10 TGI, MG_MID: −4.35
[1]; whole panel
  Log10 TGI, Delta: 2.75
  Log10 TGI, Range: 3.10
